Where two headings read alike, the source gives them in different places.
How the values were obtained:
[1] = system: MIA PaCa-2 cells (K-Ras G12C); experiment: Ras-SOS cellular growth inhibition assay (CellTiter-Glo, 3D); type: cell-based
Method: MIA PaCa-2 (ATCC CRL-1420) and NCI-H1792 (ATCC CRL-5895) cell lines comprise a G12C mutation can be used to assess Ras cellular signaling in vitro, e.g., in response to a subject compound of the present disclosure. […] Cell culture medium (comprising, for example, MIA PaCa-2 cells) is prepared with DMEM/Ham's F12 (e.g., with stable Glutamine, 10% FCS, and 2.5% Horse Serum. NCI-H1792 culture medium is prepared with RPMI 1640 (e.g., with stable Glutamine) and 10% FCS. A CellTiter-Glo (CTG) luminescent based assay (Promega) is used to assess growth of the cells, as a measurement of the ability of the compounds herein to inhibit Ras signaling in the cells. The cells (e.g., 800-1200 per well) are seeded in their respective culture medium in standard tissue culture-treated ultra-low attachment surface 96-well format plates (Corning Costar #3474). The day after plating, cells are treated with a dilution series (e.g., a 9 point 3-fold dilution series) of the compounds herein (e.g., approximately 125 μl final volume per well). Cell viability can be monitored (e.g., approximately 5 days later) according to the manufacturer's recommended instructions, where the CellTiter-Glo reagent is added (e.g., approximately 65 μl), vigorously mixed, covered, and placed on a plate shaker (e.g., approximately for 20 min) to ensure sufficient cell lysis prior to assessment of luminescent signal. The IC50 values are determined using the four-parameter fit. The resulting IC50 value is a measurement of the ability of the compounds herein to reduce cell growth of Ras-driven cells as representative tumor cells.

[2] = system: NCI-H1975 cells (EGFR T790M L858R); experiment: EGFR-SOS cellular inhibition assay (CellTiter-Glo, 3D); type: cell-based
SOS1 = SOS1 (Homo sapiens (Human), UniProt Q07889); experiment: Ras-SOS interaction assay (HTRF); type: biochemical
Source text: The ability of any compound of the present disclosure to reduce a Ras protein signaling output by, e.g., interfering or disrupting interaction (or binding) between SOS1 and a Ras protein can be assessed in vitro. For example, the equilibrium interaction of human SOS1 (hSOS1) with human wildtype Kras or K-Ras mutant (e.g., hK-Ras G12C mutant, or hK-RasG12C) can be assessed as a proxy or an indication for a subject compound's ability to inhibit SOS. Detection of such interaction is achieved by measuring homogenous time-resolved fluorescence resonance energy transfer (HTRF) from (i) a fluorescence resonance energy transfer (FRET) donor (e.g., antiGST-Europium) that is bound to GST-tagged K-RasG12C to (ii) a FRET acceptor (e.g., anti-6His-XL665) bound to a His-tagged hSOS1.
The assay buffer can contain 5 mM HEPES pH 7.4, 150 mM NaCl, 10 mM EDTA, 1 mM DTT, 0.05% BSA, 0.0025% (v/v) Igepal and 100 mM KF. A Ras working solution is prepared in assay buffer containing typically 10 nM of the protein construct (e.g., GST-tagged hK-RasG12C) and 2 nM of the FRET donor (e.g., antiGST-Eu(K) from Cisbio, France). A SOS1 working solution is prepared in assay buffer containing typically 10 nM of the protein construct (e.g., His-hSOS1) and 10 nM of the FRET acceptor (e.g., anti-6His-XL665 from Cisbio, France). An inhibitor control solution is prepared in assay buffer containing 10 nM of the FRET acceptor without the SOS1 protein.
A fixed reaction mixture with or without test compound is transferred into a 384-well plate. Ras working solution is added to all wells of the test plate. SOS1 working solution is added to all wells except for those that are subsequently filled the inhibitor control solution. After approximately 60 min incubation, the fluorescence is measured with a M1000Pro plate reader (Tecan) using HTRF detection (excitation 337 nm, emission 1: 620 nm, emission 2: 665 nm). Compounds are tested in duplicates at different concentrations (for example, 10 μM, 2.5 μM, 0.63 μM, 0.16 μM, 0.04 μM, 0.01 μM test compound). The ratiometric data (i.e., emission 2 divided by emission 1) is used to calculate IC50 values against SOS1 using GraphPad Prism (GraphPad software).

[3] = Homo sapiens, MIA PaCa-2, 120 h, MIA PaCa-2, 3D proliferation, about 5 days, read-out: Bio-Cell-Prolif-3D (MiaPaca2 IC50)
[4] = Homo sapiens, 120 h, NCI-H1975, 3D proliferation, about 5 days, read-out: Bio-Cell-Prolif-3D (H1975 IC50)
[5] = Homo sapiens, MIA PaCa-2, MIA PaCa-2, read-out: IC50 in inhibiting MIA PaCa-2 cell growth
[6] = Homo sapiens, NCI-H1975, EGFR T790M L858R, read-out: IC50 in inhibiting growth of NCI-H1975 cell line
[7] = K-RasG13D utilized, read-out: IC50 inhibition of SOS
[8] = K-RasG13D, read-out: IC50 value against SOS1

SOS1, sequence (Q07889 564-1049): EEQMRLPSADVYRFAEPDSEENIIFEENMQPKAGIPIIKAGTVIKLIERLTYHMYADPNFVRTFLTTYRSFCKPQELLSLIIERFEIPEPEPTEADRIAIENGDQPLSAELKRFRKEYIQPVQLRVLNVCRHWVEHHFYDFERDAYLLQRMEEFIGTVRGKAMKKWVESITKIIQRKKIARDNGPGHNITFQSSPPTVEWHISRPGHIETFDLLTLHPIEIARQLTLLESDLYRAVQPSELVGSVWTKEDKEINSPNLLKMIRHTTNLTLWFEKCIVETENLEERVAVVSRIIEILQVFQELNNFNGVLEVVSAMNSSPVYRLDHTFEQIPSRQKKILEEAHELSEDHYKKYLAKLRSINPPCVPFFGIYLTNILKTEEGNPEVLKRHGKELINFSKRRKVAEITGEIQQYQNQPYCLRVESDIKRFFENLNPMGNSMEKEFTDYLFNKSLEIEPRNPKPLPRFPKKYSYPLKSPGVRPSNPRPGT

Molecule | IC50 (SOS1; [7]) | IC50 (SOS1; [8]) | further results
Cc1nc(N[C@H](C)c2cccc(C(F)F)c2F)c2cc(C3CCN(C)CC3)c(OCCN(C)C)nc2n1 [Compound 155] | – | – | IC50 [1, 3]: ≤ 1000 nM; IC50 [2, 4]: ≤ 1000 nM
COc1nc2nc(C)nc(N[C@H](C)c3cccc(C(F)(F)C4CCN(C)CC4)c3F)c2cc1N1CCN(C(C)C)CC1 [Compound 182, (R)-N-(1-(3-(difluoro(1-methylpiperidin-4-yl)methyl)-2-fluorophenyl)ethyl)-6-(4-isopropylpiperazin-1-yl)-7-methoxy-2-methylpyrido[2,3-d]pyrimidin-4-amine] | – | – | IC50 [1, 3]: ≤ 1000 nM; IC50 [1, 5]: < 500 nM; IC50 [2, 4]: ≤ 1000 nM; IC50 [2, 6]: < 500 nM
Cc1nc(N[C@H](C)c2cccc(C(F)F)c2F)c2cc(N3CCN(C(C)C)CC3)c(NC3CNC3)nc2n1 [Compound 357, (R)-N7-(azetidin-3-yl)-N4-(1-(3-(difluoromethyl)-2-fluorophenyl)ethyl)-6-(4-isopropylpiperazin-1-yl)-2-methylpyrido[2,3-d]pyrimidine-4,7-diamine] | < 100 nM | < 50 nM | –
Cc1nc(N[C@H](C)c2cccc(C(F)F)c2F)c2cc(N3CCN(C)CC3)c(OCCN(C)C)nc2n1 [Compound 371, (R)-N-(1-(3-(difluoromethyl)-2-fluorophenyl)ethyl)-7-(2-(dimethylamino)ethoxy)-2-methyl-6-(4-methylpiperazin-1-yl)pyrido[2,3-d] pyrimidin-4-amine] | < 100 nM | < 50 nM | –
COc1nc2nc(C)nc(N[C@H](C)c3cccc(C(F)(F)C4CCN(C(C)C)CC4)c3F)c2cc1C1(C#N)CC1 [Compound 377, (R)-1-(4-((1-(3-(difluoro(1-isopropylpiperidin-4-yl)methyl)-2-fluorophenyl)ethyl)amino)-7-methoxy-2-methylpyrido[2,3-d]pyrimidin-6-yl)cyclopropane-1-carbonitrile] | – | – | IC50 [1, 3]: ≤ 1000 nM; IC50 [1, 5]: < 500 nM; IC50 [2, 4]: ≤ 1000 nM; IC50 [2, 6]: < 500 nM
COc1nc2nc(C)nc(N[C@H](C)c3cccc(C(F)(F)F)c3C)c2cc1C1CCN(C)CC1 [Compound 380, (R)-7-methoxy-2-methyl-N-(1-(2-methyl-3-(trifluoromethyl)phenyl)ethyl)-6-(1-methylpiperidin-4-yl)pyrido[2,3-d] pyrimidin-4-amine] | < 100 nM | < 50 nM | IC50 [1, 5]: < 500 nM
COc1nc2nc(C)nc(N[C@H](C)c3cccc(C(F)(F)F)c3F)c2cc1N1CCN(C(=O)[C@@H]2COCCO2)CC1 [Compound 382, ((S)-1,4-dioxan-2-yl)(4-(4-(((R)-1-(2-fluoro-3-(trifluoromethyl)phenyl)ethyl)amino)-7-methoxy-2-methylpyrido[2,3-d]pyrimidin-6-yl)piperazin-1-yl)methanone] | < 100 nM | < 50 nM | –
Cc1nc(N[C@H](C)c2cccc(C(F)F)c2F)c2cc(C3(C#N)CC3)c(NCC3COC3)nc2n1 [Compound 398, (R)-1-(4-((1-(3-(difluoromethyl)-2-fluorophenyl)ethyl)amino)-2-methyl-7-((oxetan-3-ylmethyl)amino)pyrido[2,3-d]pyrimidin-6-yl)cyclopropane-1-carbonitrile] | 100 to 1000 nM | – | –
Cc1nc(N[C@H](C)c2cccc(C(F)F)c2F)c2cc(C3(C#N)CC3)c(OC3CCOCC3)nc2n1 [Compound 403, (R)-1-(4-((1-(3-(difluoromethyl)-2-fluorophenyl)ethyl)amino)-2-methyl-7-((tetrahydro-2H-pyran-4-yl)oxy)pyrido [2,3-d]pyrimidin-6-yl)cyclopropane-1-carbonitrile] | 100 to 1000 nM | – | –
C[C@@H](Nc1ncnc2nc(OC3COC3)c(C3(C(F)F)CC3)cc12)c1cccc(C(F)F)c1F [Compound 408, (R)-N-(1-(3-(difluoromethyl)-2-fluorophenyl)ethyl)-6-(1-(difluoromethyl)cyclopropyl)-7-(oxetan-3-yloxy)pyrido[2,3-d]pyrimidin-4-amine] | 100 to 1000 nM | – | –
COc1nc2ncnc(N[C@H](C)c3cccc(C(F)F)c3F)c2cc1C1CCN(C2CCOCC2)CC1 [Compound 416, (R)-N-(1-(3-(difluoromethyl)-2-fluorophenyl)ethyl)-7-methoxy-6-(1-(tetrahydro-2H-pyran-4-yl)piperidin-4-yl)pyrido[2,3-d]pyrimidin-4-amine] | < 100 nM | < 50 nM | –
Cc1nc(N[C@H](C)c2cccc(C(F)(F)F)c2C)c2cc(C3(C#N)CC3)c(Cl)nc2n1 [Compound 423, (R)-1-(7-chloro-2-methyl-4-((1-(2-methyl-3-(trifluoromethyl)phenyl)ethyl)amino)pyrido[2,3-d]pyrimidin-6-yl)cyclopropane-1-carbonitrile] | 100 to 1000 nM | – | –
COc1nc2nc(C)nc(N[C@H](C)c3cccc(C(F)(F)C4CCN(C(C)C)CC4)c3F)c2cc1C1CCN(C)CC1 [Compound 424, (R)-N-(1-(3-(difluoro(1-isopropylpiperidin-4-yl)methyl)-2-fluorophenyl)ethyl)-7-methoxy-2-methyl-6-(1-methylpiperidin-4-yl)pyrido[2,3-d]pyrimidin-4-amine] | < 100 nM | < 50 nM | –
COc1nc2nc(CCN3CCC3)nc(N[C@H](C)c3cccc(C(C)(F)F)c3F)c2cc1C1(C#N)CC1 [Compound 425, (R)-1-(2-(2-(azetidin-1-yl)ethyl)-4-((1-(3-(1,1-difluoroethyl)-2-fluorophenyl)ethyl)amino)-7-methoxypyrido[2,3-d]pyrimidin-6-yl)cyclopropane-1-carbonitrile] | < 100 nM | < 50 nM | –
COc1nc2nc(CCN3CCC3)nc(N[C@H](C)c3cccc(C(F)(F)F)c3F)c2cc1C1(C#N)CC1 [Compound 426, (R)-1-(2-(2-(azetidin-1-yl)ethyl)-4-((1-(2-fluoro-3-(trifluoromethyl)phenyl)ethyl)amino)-7-methoxypyrido[2,3-d]pyrimidin-6-yl)cyclopropane-1-carbonitrile] | < 100 nM | – | –
COc1nc2nc(CCN3CCC3)nc(N[C@H](C)c3cccc(C(F)(F)F)c3C)c2cc1C1(C#N)CC1 [Compound 427, (R)-1-(2-(2-(azetidin-1-yl)ethyl)-7-methoxy-4-((1-(2-methyl-3-(trifluoromethyl)phenyl)ethyl)amino)pyrido[2,3-d]pyrimidin-6-yl) cyclopropane-1-carbonitrile] | < 100 nM | < 50 nM | –
(R)-4-(4-((1-(3-(2-(2-(dimethylamino)ethoxy)-1,1-difluoroethyl)-2-fluorophenyl)ethyl)amino)-7-methoxy-2-methylpyrido[2,3-d]pyrimidin-6-yl)tetrahydro-2H-thiopyran 1,1-dioxide [Compound 271] | – | – | IC50 ([1]; MIA PaCa-2, 3D proliferation, about 5 days, read-out: Bio-Cell-Prolif-3D (MiaPaca2 IC50)): ≤ 1000 nM; IC50 ([1]; MIA PaCa-2, read-out: IC50 in inhibiting MIA PaCa-2 cell growth): < 500 nM; IC50 ([2]; NCI-H1975, 3D proliferation, about 5 days, read-out: Bio-Cell-Prolif-3D (H1975 IC50)): ≤ 1000 nM; IC50 ([2]; NCI-H1975, EGFR T790M L858R, read-out: IC50 in inhibiting growth of NCI-H1975 cell line): < 500 nM

Source: patent publication US11648254B2 (Kumquat Biosciences Inc., priority 2021, dated 2023)
